Experimental data taken from US20170119907A1, “Targeted Therapeutics” (MEDIVATION TECHNOLOGIES, INC., priority 2014, published 2017).

What was measured:
Raji cells = test: Raji cell viability, trypan blue staining; type: cell-based; settings: times and concentrations tested (at or below 20 μM), FIG. 3C
Experimental: (§1) Cell viability was measured by using trypan blue to stain dead cells. Cells (2×10^5) were incubated with various concentrations of Compound 4 for 30 min, and viable cells were counted and compared to the number of viable cells in an untreated sample. Values for treated cells were normalized to untreated cells.
In a similar fashion to Example B2a, Compound 20 was assessed for its effect on viability of Raji cells as determined by trypan blue staining, as described in Example B2a.

human MSCs [1] = test: Viability and proliferation of human MSCs in the presence of compound (Example B2); type: cell-based; settings: concentrations of 20 μM or below
human MSCs [2] = test: Human MSC proliferation, CELLTITER GLO assay (ATP levels); type: cell-based; settings: 24 h, various concentrations, compared with untreated cells; FIG. 3A
Experimental: This example reports the effects of 24 hour treatment with Compound 4 on viability and proliferation of human MSCs.
Cell proliferation was measured using the CELLTITER GLO® assay (Promega), which measures ATP levels. Cells (5×10^5) were incubated with various concentrations of Compound 4 for 24 h. Proliferation was compared to that of untreated cells. Proliferation values for 24 h were normalized to time=0 and compared with values for untreated cells.

human MSCs [3] = test: Human MSC viability, trypan blue staining; type: cell-based; settings: 30 min, concentrations 20 μM or lower, FIG. 3B
Experimental: as §1

[4] = system: partial thickness chondral defects in the medial femoral condyle; test: Chondral defect model, retention of Compound 4-augmented MSCs (histological cell retention score); type: in vivo, sheep; settings: for Cell Retention (average score, n = 5): score 0-2
Experimental: The capacity of ovine MSCs derived from bone marrow and augmented with Compound 4 to bind to lesions in cartilage in vivo was evaluated in a chondral defect model.
Bone marrow aspirate was collected from fifteen healthy nave female sheep and processed in vitro to attain a population of mesenchymal stem cells (MSCs) for each sheep created by expansion of adherent cells. MSCs were frozen at passage 1 (P1).
Two circular partial thickness chondral defects were surgically created bilaterally in the medial femoral condyle of each sheep, thereby creating four defects per sheep. Once the medial femoral condyle was surgically exposed, two partial thickness circular defects were created in the cartilage of the anterior aspect, separated by 2-3 mm. Each defect was created by penetrating the cartilage with a 7 mm diameter biopsy punch to delineate the margins followed by removal of cartilage within the defect margin with a scalpel to a depth of approximately 0.5 mm-0.8 mm without penetrating the surface of the calcified cartilage. Within the same animal, each defect received one of four experimental treatments: • a. D1: Empty Control: defect left unfilled; • b. D2: Vehicle Control: cells incubated in PBS delivered to the defect; • c. D3: 100 μM Compound 4 incubated in defect followed by delivery of cells to the defect; and • d. D4: Cells were incubated with 10 μM Compound 4 for 30 min and together they were delivered to defect.
Sheep were divided into three groups of 5 sheep. One group was sacrificed on day 1 after surgery, the second group was sacrificed on day 7, and the third group was sacrificed on day 14 after surgery.
The complete intact joint was harvested and transported to the laboratory. The joint was exposed, and defects were scored macroscopically prior to separating out bone blocks containing the defects with a band saw. Defects were further trimmed and individually separated using a fine ISOMET® saw prior to fixation in 10% neutral buffered formalin. Tissue was further trimmed for histological processing, fixed, and decalcified for at least one week.
As each sample completed decalcification, it was transferred to 40% EtOH until all samples were decalcified and the last sample had been in 40% EtOH for at least 24 hours.
Following decalcification, specimens were prepared for histology staining with safranin-orange, fast green and haematoxylin-eosin.
Histological Assessment of Compound 4-Augmented Cell Retention
Histological slides were stained with Haematoxylin & Eosin and Safranin Orange for evaluation of cell retention and the early stages of cartilage repair. Cell retention was assessed using the following scoring system: […]

Structure (SMILES)	Toxic effects on Raji cells (viability) (Raji cells)	proliferation of human MSCs (human MSCs [1]; FIG. 3A)	viability of human MSCs relative to untreated human MSCs (human MSCs [1]; FIG. 3B)	Effect on human MSC proliferation (human MSCs [2])	Effect on viability of human MSCs (human MSCs [3])	Cell Retention (average score, n = 5) ([4]; D3: 100 μM incubated in defect followed by delivery of cells, Day 1)	Cell Retention (average score, n = 5) ([4]; D3: 100 μM incubated in defect followed by delivery of cells, Day 7)	Cell Retention (average score, n = 5) ([4]; D3: 100 μM incubated in defect followed by delivery of cells, Day 14)	Cell Retention (average score, n = 5) ([4]; D4: cells pre-incubated with 10 μM for 30 min, then delivered to defect, Day 1)	Cell Retention (average score, n = 5) ([4]; D4: cells pre-incubated with 10 μM for 30 min, then delivered to defect, Day 7)	Cell Retention (average score, n = 5) ([4]; D4: cells pre-incubated with 10 μM for 30 min, then delivered to defect, Day 14)	MSC retention (in words) ([4]; sheep chondral defect model, summary of Table B9)
Cc1cc2nc3cc(C)c(NCCCCCCNC(=O)c4ccc(-c5ccc(C(=O)NCCCCCCNc6cc7c(cc6C)nc6cc(C)c(N)cc6[n+]7-c6ccccc6)cc5)cc4)cc3[n+](-c3ccccc3)c2cc1N.[Cl-].[Cl-] [Compound 20, (3-amino-7-{[6-({4-[4-({6-[(7-amino-5-chloranuide-2,8-dimethyl-5-phenyl-5λ^6,10-phenazin-5-ylium-3-yl)amino]hexyl}carbamoyl)phenyl]phenyl}formamido)hexyl]amino}-2,8-dimethyl-5-phenyl-5λ^6,10-phenazin-5-ylium-5-e)chloranuide]	did not have toxic effects											
Cc1cc2nc3cc(C)c(NCCCCCCCCNc4cc5c(cc4C)nc4cc(C)c(N)cc4[n+]5-c4ccccc4)cc3[n+](-c3ccccc3)c2cc1N.[Cl-].[Cl-] [Compound 4, 7,7′-(octane-1,8-diylbis(azanediyl))bis(3-amino-2,8-dimethyl-5-phenylphenazin-5-ium) chloride]		do not affect	do not affect	does not affect human MSC proliferation	did not affect the viability	0.75	0.75	1.2	0.4	1.0	1.25	promotes MSC retention
